Assay results reported in patent US20250270180A1, “MEK INHIBITORS AND THERAPEUTIC USES THEREOF” (Immuneering Corporation, priority 2020, published 2025).
“And” between values parts separate entries of the source, which are not always exact repeats. Identical values can stand only once.

What was measured:
[1] = system: A549 pMEK:tMEK (CRAF); assay: CRAF-bypass pMEK:tMEK, A549; type: cell-based
Experimental: Materials and Methods: A549 or A375 cells were seeded in 6-well plates at an appropriate seeding density on day 0. On day 2 or 3, after checking the health and confluency of cells, the media was aspirated and replaced with 1 mL media containing a predetermined concentration of compound and incubated for 2 hours. After 2 hours, the media was aspirated, and the cells washed 2 times with cold PBS. Cells were lysed on ice, with 50 uL 1×CST lysis buffer+1 mM PMSF for 5 minutes. After 5 minutes, cells were removed using a scraper and transferred to cold 1.5 mL tubes, and centrifuged for 10 min, 4° C., 14,000×g. Supernatant was gently removed and snap frozen in liquid nitrogen. Protein concentration of the lysate was determined using Bradford Reagent (analyzed using SpectraMax M2E) and diluted to 1 mg/mL or pERK or 1.5 mg/mL for pMEK analysis. Cell lysates were then analyzed for phosphor-ERK/total-ERK levels on a Jess system (ProteinSimple; Cat #JS3346) using the following antibodies: tERK1/2 (CST 4696; 1:50) and pERK1/2 (CST 4377; 1:50). […]
A549 or […] cells were treated in duplicate for two hours with compounds at varying concentrations. […] After storage, the lysate was quantified with the Bradford assay. Before the lysates were prepared to run on the Jess, the lysates were diluted to 1 mg/mL for pERK analysis and 1.5 mg/mL pMEK analysis using quantitative Western blotting. […]

[2] = Mouse liver microsome stability (t1/2, Clint); type: in vitro ADME; settings: liver microsomes, pH 7.4, 0.5 mg/ml microsomal protein
Experimental: (Eppendorf 5804R). […] The disappearance of the parent compound was determined.

[3] = system: A549 (KRAS G12S) pERK: total ERK; assay: Phospho-ERK screen in A549 (KRAS G12S); type: cell-based; settings: 10 μM for 2 hours
Experimental: Materials and Methods: A549 or A375 cells were seeded in 6-well plates at an appropriate seeding density on day 0. On day 2 or 3, after checking the health and confluency of cells, the media was aspirated and replaced with 1 mL media containing a predetermined concentration of compound and incubated for 2 hours. After 2 hours, the media was aspirated, and the cells washed 2 times with cold PBS. Cells were lysed on ice, with 50 uL 1×CST lysis buffer+1 mM PMSF for 5 minutes. After 5 minutes, cells were removed using a scraper and transferred to cold 1.5 mL tubes, and centrifuged for 10 min, 4° C., 14,000×g. Supernatant was gently removed and snap frozen in liquid nitrogen. Protein concentration of the lysate was determined using Bradford Reagent (analyzed using SpectraMax M2E) and diluted to 1 mg/mL or pERK or 1.5 mg/mL for pMEK analysis. Cell lysates were then analyzed for phosphor-ERK/total-ERK levels on a Jess system (ProteinSimple; Cat #JS3346) using the following antibodies: tERK1/2 (CST 4696; 1:50) and pERK1/2 (CST 4377; 1:50). For pMEK/tMEK, the following antibodies were used: tMEK1/2 (CST 4694; 1:15) and pMEK1/2 (CST 9154; 1:400). All dilutions were in Milk-free antibody diluent.
The results of a phospho-ERK Screen in A549 (KRAS G12S) study is described in Table 7, 7A, 7B, and 8 below.

[4] = Metabolite ID study, dog hepatocytes; type: in vitro ADME; settings: 10 uM compound 9, T=60 min
Experimental: Animal Studies: Compound 9 was tested using six species hepatocytes in a metabolite ID study (T=60 min).
Cryopreserved hepatocytes from a selected species were thawed and incubated in duplicate with 10 uM compound 9 in Krebs-Henseleit buffer. […] Viability of hepatocytes was >70% after thawing.
(Eppendorf 5804R). […] The disappearance of the parent compound was determined, and the formation of metabolites was evaluated. Metabolites present at >1% of total compound related material (based on peak area) were identified by interpretation of the LC-MS/MS data.
MS settings were optimized for the flow rate. Full scan spectra were acquired in combination with data dependent MS2.
The spectra obtained from all samples were screened for the presence of m/z values that are absent in the blank incubations (incubations with hepatocytes without compound and with vehicle control, and incubations of compound in buffer without hepatocytes). T=60 min incubations were used as an initial screening. All possible metabolites observed were semi-quantified by MS response (peak area). MS2 spectra were interpreted to determine possible location of the metabolism reaction. The presence of metabolites identified was compared across the selected species.

## CNS(=O)(=O)Nc1cccc(Cc2c(CN(C)C)c3ccc(OC(=O)N(C)C)cc3oc2=O)c1F [Compound 9]
[1]
  CRAF A549 pMEK:tMEK [100 nM; 2 hr]: 0.47
[2]
  half-life at 1 uM: 44 min
  microsomal CLint at 1 uM: 32 µL/min/mg
[3]
  pERK: total ERK (% relative to vehicle): 0.60% and 1.81%
[4]
  % of total compound related material based on peak area, Dog: 96%
